Reference: US20140162285A1, “Methods of Modulating Vesicular Trafficking” (The General Hospital Corporation, priority 2009, published 2014)
Peptide text beside a SMILES is read from it. * marks the point of attachment. Biotin = O=C1N[C@H]2[C@H](CS[C@H]2CCCCC(=O)*)N1

Assays:
PH-domain of ARNO = molecular target: T1, PH-domain of ARNO (Homo sapiens, UniProt Q99418); assay: a2N-derived peptide pull-down with GST-PH domain; assay type: binding
T1 construct: iv) 253-378aa, plekstrin-homology (PH) domain; made in house; host or cells: E. coli BL21(DE3)
T1 sequence (Q99418 253-378): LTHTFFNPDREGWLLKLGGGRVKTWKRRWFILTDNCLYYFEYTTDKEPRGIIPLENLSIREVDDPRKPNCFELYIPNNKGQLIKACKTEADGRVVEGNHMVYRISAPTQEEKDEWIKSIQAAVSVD
Protocol: FIGS. 5A-C are a set of three images of Western blots showing the identification of interaction motif of a2N that is involved in specific binding with the Sec7 domain of ARNO. 5A, The catalytic Sec7 domain of ARNO interacts with two a2N-derived peptides, a2N-01 and a2N-03, in pull-down experiments. The peptide pull-down assay was performed with six a2N-derived interaction peptides immobilized on streptavidin-beads and incubated with purified recombinant GST-only or GST-Sec7 domain. Interacting complexes were eluted and analyzed by Western blotting using monoclonal anti-GST antibodies as described below. The loading controls for GST-only (lane 1) or GST-Sec7 (lane 2) are shown. […] The peptide pull-down assay was performed with peptides a2N-01 and a2N-03 immobilized on streptavidin-beads and incubated with purified recombinant GST-PH domain (5B) or GST-PB domain (5C). Interacting complexes were eluted and analyzed by Western blotting using monoclonal anti-GST antibodies. […]
These a2N-derived peptides were immobilized by an N-terminal biotin-tag, which ensured the same efficiency and equivalent binding to streptavidin-agarose beads. […] After washing beads four times in ice-cold binding buffer, the interacting complexes were eluted by boiling in SDS-PAGE sample buffer for 10 min at 95° C., resolved by SDS-PAGE and analyzed by Western blotting using monoclonal anti-GST antibody. […]

ARNO PB-domain = molecular target: T2, ARNO PB-domain (Homo sapiens, UniProt Q99418); assay: GST pull-down of in vitro translated a2N with ARNO PB-domain; assay type: binding; conditions: GST pull-down with GST- and His-tagged PB-domain construct
T2 construct: v) 379-400aa, polybasic (PB) domain; made in house; host or cells: E. coli BL21(DE3)
Protocol: The purified recombinant GST-ARNO(wt) and GST-tagged ARNO domain constructs ([…]) were incubated with 10 μl of in vitro translated 6His-a2N recombinant protein at 4° C. for 2 hours in 500 μl of binding buffer (10 mM HEPES, 1 mM EDTA, 1 mM DTT, 100 mM NaCl, 10% glycerol, 0.1% NP-40) with gentle rotation. Then the interacting recombinant proteins were immobilized on glutathione beads by incubation with 50 μl of 50% glutathione Sepharose 4B slurry for 2 hours at 4° C. The beads were collected by centrifugation and washed 5 times with 500 μl ice-cold binding buffer. Interacting proteins were eluted by boiling in SDS-PAGE sample buffer for 10 min at 95° C., resolved by SDS-PAGE and analyzed by Western blotting using polyclonal anti-a2N antibodies. […]
To examine the ability of these well-defined and functionally distinct domains of ARNO to interact with a2N1-402, full-length ARNO(wt) and its four domains were cloned separately for bacterial expression of recombinant proteins (FIG. 3). […] Interacting proteins were detected by western blot analysis with a2-specific antibodies as described above.

T2 sequence (Q99418 379-400 limits assumed): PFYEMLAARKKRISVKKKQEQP

**Q.** For `CSCC[C@H](NC(=O)CCCC[C@@H]1SC[C@@H]2NC(=O)N[C@@H]21)C(=O)NCC(=O)N[C@@H](CO)C(=O)N[C@@H](CC(C)C)C(=O)N[C@@H](Cc1ccccc1)C(=O)N[C@@H](CCCNC(=N)N)C(=O)N[C@@H](CO)C(=O)N[C@@H](CCC(=O)O)C(=O)N[C@@H](CO)C(=O)N[C@@H](CCSC)C(=O)N[C@@H](CS)C(=O)N[C@@H](CC(C)C)C(=O)N[C@@H](C)C(=O)N[C@@H](CCC(N)=O)C(=O)N[C@@H](CC(C)C)C(=O)N[C@@H](Cc1ccccc1)C(=O)N[C@@H](CC(C)C)C(=O)N[C@@H](CS)C(=O)O` [a2N-01, Bio-MGSLFRSE SMCLAQLFL-Cys] (Biotin-MGSLFRSESMCLAQLFLC-OH; N-terminus and C-terminus assumed), which “interaction with PH-domain of ARNO” value (PH-domain of ARNO) is on record?
**A.** does not interact

B1: a2N: recombinant N-terminal cytosolic tail, amino acid residues 1-402 of mouse V-ATPase a2-subunit (protein)
chain: MGSLFRSESMCLAQLFLQSGTAYECLSALGEKGLVQFRDLNQNVSSFQRKFVGEVKRCEELERILVYLVQEITRADIPLPEGEASPPAPPLKHVLEMQEQLQKLEVELREVTKNKEKLRKNLLELVEYTHMLRVTKTFLKRNVEFEPTYEEFPALENDSLLDYSCMQRLGAKLGFVSGLIQQGRVEAFERMLWRACKGYTIVTYAELDECLEDPETGEVIKWYVFLISFWGEQIGHKVKKICDCYHCHIYPYPNTAEERREIQEGLNTRIQDLYTVLHKTEDYLRQVLCKAAESVCSRVVQVRKMKAIYHMLNMCSFDVTNKCLIAEVWCPEVDLPGLRRALEEGSRESGATIPSFMNTIPTKETPPTLIRTNKFTEGFQNIVDAYGVGSYREVNPALFTII
modifications: left off: small tags and cut ends
notes: recombinant N-terminal cytosolic tail, amino acid residues 1-402 of mouse V-ATPase a2-subunit
**Q.** B1 was tested. Which “interaction of a2N with ARNO PB-domain” value (ARNO PB-domain) did it give?
**A.** no interaction
